This note sets out measurements from patent US20230391756A1, “NEW COMPOUND” (JANSSEN PHARMACEUTICA NV, priority 2020, published 2023).

pEC50, pIC50: −log10 of the molar value.

Assay [1] has as its system NLRP3 inflammasome pathway (IL-1β). Description: PBMC assay: IL-1β release after LPS stimulation. Format: cell-based. The note with it: human PBMCs, 100 ng/ml LPS for 6 hrs, MSD. The protocol: The activity of a compound according to the present invention can be assessed by in vitro methods.
(§1) Peripheral venous blood was collected from healthy individuals and human peripheral blood mononuclear cells (PBMCs) were isolated from blood by Ficoll-Histopaque (Sigma-Aldrich, A0561) density gradient centrifugation. After isolation, PBMCs were stored in liquid nitrogen for later use. Upon thawing, PBMC cell viability was determined in growth medium (RPMI media supplemented with 10% fetal bovine serum, 1% Pen-Strep and 1% L-glutamine). […] PBMCs were added at a density of 7.5×10^4 cells per well and incubated for 30 min in a 5% CO2 incubator at 37° C. LPS stimulation was performed by addition of 100 ng/ml LPS (final concentration, Invivogen, tlrl-smlps) for 6 hrs followed by collection of cellular supernatant and the analysis of IL-1β (μM) and TNF cytokines levels (μM) via MSD technology according to manufacturers' guidelines (MSD, K151A0H).

In assay [2] the test system is TNF. Kind of assay: PBMC assay: TNF cytokine level after LPS stimulation. It is filed as cell-based. The following applies: human PBMCs, 100 ng/ml LPS for 6 hrs, MSD, read-out: TNFα EC50. The protocol: as §1

In assay [1], `Cc1nnc2n1C[C@H](NC(=O)Cc1nn(C(C)C)c3cc(C(F)(F)F)ccc3c1=O)CC2` (single isomer, unassigned) [F-12] showed a pIC50 of less than 4.70. In addition, the pEC50 in assay [2] was less than 4.70.

On to `Cc1nnc2n1C[C@@H](NC(=O)Cc1nn(C(C)C)c3cc(C(F)(F)F)ccc3c1=O)CC2` (single isomer, unassigned) [F-13], for which, in assay [1], the pIC50 was 5.57. Also, the pEC50 in assay [2] was less than 4.70. In the same order, the values of `CCN1CC[C@@H](C)[C@@H](NC(=O)Cc2nn(C(C)C)c3cc(C(F)(F)F)ccc3c2=O)C1` (single isomer, unassigned) [F-88] are less than 4.70 and less than 4.70. In turn, `CCN1CC[C@H](C)[C@H](NC(=O)Cc2nn(C(C)C)c3cc(C(F)(F)F)ccc3c2=O)C1` (single isomer, unassigned) [F-103] had a pIC50 in assay [1] of 5.30. Besides, in assay [2], the pEC50 is less than 4.70. For `CC(C)n1nc(CC(=O)N[C@H]2C[C@@](C)(O)C2)c(=O)c2ccc(Br)cc21` [F-3], in that order: 6.91 and less than 4.70. For `CC(C)n1nc(CC(=O)Nc2ccc3nncn3c2)c(=O)c2ccc(Br)cc21` [F-4], in that order: 7.15 and 5.02. In the same order, the values of `CCn1nc(CC(=O)Nc2ccncn2)c(=O)c2ccc(Br)cc21` [F-7] are 6.35 and less than 4.70. On to `CCn1nc(CC(=O)Nc2ccncn2)c(=O)c2ccc(C3CC3)cc21` [F-8], for which the pIC50 in assay [1] is 6.18. Besides, the pEC50 in assay [2] is 4.89. In the same order, the values of `CC(C)n1nc(CC(=O)NC2CC(C(C)(C)O)C2)c(=O)c2ccc(C(F)(F)F)cc21` (stereo not shown) [F-9] are 4.99 and less than 4.70.

In assay [1], `Cc1nnc2n1CC(NC(=O)Cc1nn(C(C)C)c3cc(C(F)(F)F)ccc3c1=O)CC2` (stereo not shown) [F-11] had a pIC50 of 5.40. Also, in assay [2], the pEC50 is less than 4.70.

With `CC(C)n1nc(CC(=O)Nc2cc(C(F)(F)F)ncn2)c(=O)c2ccc(C(F)(F)F)cc21` [F-16], in assay [1], the pIC50 was 5.17. In assay [2], the pEC50 was less than 4.70. For `CCn1nc(CC(=O)N[C@H]2C[C@@](C)(OC(=O)Cc3nn(CC)c4cc(Br)ccc4c3=O)C2)c(=O)c2ccc(Br)cc21` [F-23], in that order: less than 5.00 and less than 5.00. For `CC(C)n1nc(CC(=O)Nc2ccc3nccn3c2)c(=O)c2ccc(C(F)(F)F)cc21` [F-35], in that order: 6.10 and 4.70. In the same order, the values of `CC(C)n1nc(CC(=O)Nc2ccn3ncnc3c2)c(=O)c2ccc(C(F)(F)F)cc21` [F-37] are 5.78 and less than 4.70. `CC(C)n1nc(CC(=O)Nc2ccn3ccnc3c2)c(=O)c2ccc(C(F)(F)F)cc21` [F-38] gave a pIC50 in assay [1] of 5.76. Moreover, the pEC50 in assay [2] was less than 4.70.

In assay [1], `CC(C)n1nc(CC(=O)Nc2ccc3cnnn3c2)c(=O)c2ccc(C(F)(F)F)cc21` [F-40] gave a pIC50 of 5.65. For the same molecule, the pEC50 in assay [2] was 4.72. In the same order, the values of `CC(C)n1nc(CC(=O)Nc2cc3c(cn2)ncn3C)c(=O)c2ccc(C(F)(F)F)cc21` [F-44] are 5.31 and less than 4.70.

As for `CC(C)n1nc(CC(=O)Nc2ccc(=O)n(C)c2)c(=O)c2ccc(C(C)(F)F)cc21` [F-52], the pIC50 in assay [1] is 6.08. In addition, the pEC50 in assay [2] was 4.79. For `CC(C)n1nc(CC(=O)Nc2ccc(=O)n(C)n2)c(=O)c2ccc(C(C)(F)F)cc21` [F-53], in that order: 6.15 and 5.01. In the same order, the values of `CC(C)n1nc(CC(=O)Nc2ccc3ncn(C)c3n2)c(=O)c2ccc(C(F)(F)F)cc21` [F-54] are 6.16 and less than 4.70.

Turning to `O=C(Cc1nn(C2CC2)c2cc(C3CC3)ccc2c1=O)Nc1ccc2nccn2n1` [F-55], the pIC50 in assay [1] is 6.21. Moreover, in assay [2], the pEC50 was less than 4.70. With `CCn1nc(CC(=O)Nc2ccc3nncn3n2)c(=O)c2ccc(C(F)(F)F)cc21` [F-56], the pIC50 in assay [1] was 6.28. The pEC50 in assay [2] was 4.73. Molecule `O=C(Cc1nn(C2CC2)c2cc(C3CC3)ccc2c1=O)Nc1ccc2nncn2c1` [F-59] gave a pIC50 in assay [1] of 6.43. Besides, the pEC50 in assay [2] is less than 4.70. In the same order, the values of `O=C(Cc1nn(C2CC2)c2cc(C(F)(F)F)ccc2c1=O)Nc1ccc2nncn2c1` [F-63] are 6.57 and less than 4.70. In the same order, the values of `CCn1nc(CC(=O)Nc2ccc3nccn3n2)c(=O)c2ccc(C(C)(F)F)cc21` [F-65] are 6.62 and 5.08. In the same order, the values of `CCn1nc(CC(=O)Nc2ccc3nncn3c2)c(=O)c2ccc(C(C)C)cc21` [F-69] are 6.78 and 4.76. Take `CC(F)(F)c1ccc2c(=O)c(CC(=O)Nc3ccc4nncn4n3)nn(C3CC3)c2c1` [F-72]: the pIC50 in assay [1] was 7.02. For the same molecule, in assay [2], the pEC50 is 5.21.

`CCn1nc(CC(=O)Nc2ccc3nncn3n2)c(=O)c2ccc(Br)cc21` [F-73] had a pIC50 in assay [1] of 7.22. In addition, the pEC50 in assay [2] is less than 4.70.

In the case of `CC(C)n1nc(CC(=O)Nc2ccncn2)c(=O)c2ccc(C3CC3)cc21` [F-79, 2-(7-cyclopropyl-1-isopropyl-4-oxo-1,4-dihydrocinnolin-3-yl)-N-(pyrimidin-4-yl)acetamide], the pEC50 in assay [2] is 4.78.

On to `CC(C)n1nc(CC(=O)N[C@H]2C[C@@](C)(O)C2)c(=O)c2ccc(C3CC3)cc21` [F-80], for which, in assay [1], the pIC50 is 5.92. In addition, the pEC50 in assay [2] was less than 4.70. In the same order, the values of `CC(C)n1nc(CC(=O)Nc2ccc3nncn3c2)c(=O)c2ccc(C3CC3)cc21` [F-81] are 6.78 and 5.15.

Consider `CCn1nc(CC(=O)Nc2ccc3nncn3c2)c(=O)c2ccc(C3CC3)cc21` [F-82], for which the pIC50 in assay [1] is 6.74. In addition, the pEC50 in assay [2] is less than 4.70. For `CCn1nc(CC(=O)N[C@H]2C[C@@](C)(O)C2)c(=O)c2ccc(C3CC3)cc21` [F-83], in that order: 5.94 and less than 4.70. In the same order, the values of `CC(C)n1nc(CC(=O)Nc2ccc(C(F)(F)F)nn2)c(=O)c2ccc(C(F)(F)F)cc21` [F-84, 2-(1-isopropyl-4-oxo-7-(trifluoromethyl)-1,4-dihydrocinnolin-3-yl)-N-(6-(trifluoromethyl)pyridazine-3-yl)acetamide] are less than 4.70 and less than 4.70. For `CC(C)n1nc(CC(=O)Nc2ccc(C(F)F)nn2)c(=O)c2ccc(C(F)(F)F)cc21` [F-87], in that order: 4.87 and less than 4.70. `CC(C)n1nc(CC(=O)Nc2nc3ccc(Cl)cc3n2C)c(=O)c2ccc(C(F)(F)F)cc21` [F-89] had a pIC50 in assay [1] of less than 4.70. Further, in assay [2], the pEC50 was less than 4.70. In turn, `CC(C)n1nc(CC(=O)Nc2nc3cc(Br)ccc3n2C)c(=O)c2ccc(C(F)(F)F)cc21` [F-90] showed a pIC50 in assay [1] of less than 4.70. Besides, the pEC50 in assay [2] was less than 4.70. Take `CC(C)n1nc(CC(=O)Nc2nc3cc(Cl)ccc3o2)c(=O)c2ccc(C(F)(F)F)cc21` [F-102]: the pIC50 in assay [1] is 5.22. Besides, in assay [2], the pEC50 was less than 4.70. For `CCS(=O)(=O)c1ccc2oc(NC(=O)Cc3nn(C(C)C)c4cc(C(F)(F)F)ccc4c3=O)nc2c1` [F-105], in that order: 5.62 and less than 4.70.

For the molecule `O=C(Cc1nn(C2CC2)c2cc(C3CC3)ccc2c1=O)Nc1cn2cnnc2cn1` [F-109], in assay [1], the pIC50 is 6.00. Also, the pEC50 in assay [2] is less than 4.70. In the same order, the values of `CC(C)n1nc(CC(=O)Nc2cn3cnnc3cn2)c(=O)c2ccc(C(F)(F)F)cc21` [F-112] are 6.28 and less than 4.70. In the same order, the values of `CC(C)n1nc(CC(=O)Nc2cn3cc(Br)ncc3n2)c(=O)c2ccc(C(F)(F)F)cc21` [F-116, N-(6-bromoimidazo[1,2-a]pyrazin-2-yl)-2-(1-isopropyl-4-oxo-7-(trifluoromethyl)-1,4-dihydrocinnolin-3-yl)acetamide] are 5.42 and less than 4.70.

Take `CC(C)n1nc(CC(=O)Nc2nc3c(Cl)cccn3n2)c(=O)c2ccc(C(F)(F)F)cc21` [F-117]: the pIC50 in assay [1] is 6.08. In addition, in assay [2], the pEC50 was less than 4.70. In the same order, the values of `CC(C)n1nc(CC(=O)Nc2nc3ccc(Br)nn3n2)c(=O)c2ccc(C(F)(F)F)cc21` [F-118] are 5.79 and less than 5.00. For `COc1ccc2nc(NC(=O)Cc3nn(C(C)C)c4cc(C(F)(F)F)ccc4c3=O)nn2c1` [F-119], in that order: 5.66 and less than 4.70. For `CC(C)n1nc(CC(=O)Nc2nc3nccc(C4CC4)n3n2)c(=O)c2ccc(C(F)(F)F)cc21` [F-120], in that order: 4.94 and less than 4.70. `CC(C)n1nc(CC(=O)Nc2nc3ccc(C(F)(F)F)cn3n2)c(=O)c2ccc(C(F)(F)F)cc21` [F-121] had a pIC50 in assay [1] of 5.16. Also, the pEC50 in assay [2] was less than 4.70. As to `Cc1ccn2nc(NC(=O)Cc3nn(C(C)C)c4cc(C(F)(F)F)ccc4c3=O)nc2c1` [F-122], the pIC50 in assay [1] was 6.45. Also, in assay [2], the pEC50 was less than 4.70.

Take `CC(C)n1nc(CC(=O)Nc2cn3cccnc3n2)c(=O)c2ccc(C(F)(F)F)cc21` [F-123]: the pIC50 in assay [1] is 5.71. Also, the pEC50 in assay [2] was less than 4.70. In the same order, the values of `CC(C)n1nc(CC(=O)Nc2nc3cnccn3n2)c(=O)c2ccc(C(F)(F)F)cc21` [F-124] are 6.91 and less than 4.70. For `CC(C)n1nc(CC(=O)Nc2cc3ncccn3n2)c(=O)c2ccc(C(F)(F)F)cc21` [F-125], in that order: 5.59 and less than 4.70.

With `CC(C)n1nc(CC(=O)Nc2cn3ccncc3n2)c(=O)c2ccc(C(F)(F)F)cc21` [F-126], the pIC50 in assay [1] was 5.25. Further, in assay [2], the pEC50 was less than 4.70.

As usually defined, the pIC50 is the IC50 on a negative log10 scale, so that one unit is a factor of ten. One may read the pEC50 as the negative decadic logarithm of the EC50, by convention in mol/L.
